Source: paper PMC3692431, “Anticonvulsant Activity of B2, an Adenosine Analog, on Chemical Convulsant-Induced Seizures” (PLoS ONE, 2013)
pKi: −log10 of the molar value.

Target: T1, A2A adenosine receptor (Rattus norvegicus, UniProt P30543)
T1 construct: from tissue; host or cells: striatum of male Wistar rats
Assay: Radioligand binding, [3H]MSX-2 displacement in rat striatal membranes
Conditions: 0.75 nM [3H]MSX-2
Description: Male Wistar rats were sacrificed. The cerebral cortex and striatum were then removed and homogenized in 10 volumes of ice-cold 50 mM Tris–HCl buffer (pH 7.4). The homogenates were centrifuged (48,000 ×g) at 4°C for 10 min, the supernatant decanted, and the pellet resuspended in the same volume of buffer before being centrifuged again. The final pellets were resuspended in 50 mM Tris–HCl buffer containing adenosine deaminase (1.2 U per mg of protein) to remove endogenous adenosine.
Binding affinity at adenosine A2A receptors was tested in rat striatal membranes using 0.75 nM [^3H]MSX-2 (104.8 Ci/mmol). The binding assay was carried out in Tris–HCl buffer (50 mM, pH 7.4) as previously described, [12]. Briefly, assays were performed by first incubating the mixtures on a shaking water-bath at 25°C for 30 min. Termination of the incubation was performed by rapid filtration through GF/B glass fiber filters. The radioactivity on the filter was measured using a scintillation counter. […] Inhibition curves were determined using eight different concentrations ranging from 10^−5 to 10^−8 M. The inhibition constants (Ki) were calculated using an equation from Cheng and Prusoff.

T1 sequence (P30543 whole entry): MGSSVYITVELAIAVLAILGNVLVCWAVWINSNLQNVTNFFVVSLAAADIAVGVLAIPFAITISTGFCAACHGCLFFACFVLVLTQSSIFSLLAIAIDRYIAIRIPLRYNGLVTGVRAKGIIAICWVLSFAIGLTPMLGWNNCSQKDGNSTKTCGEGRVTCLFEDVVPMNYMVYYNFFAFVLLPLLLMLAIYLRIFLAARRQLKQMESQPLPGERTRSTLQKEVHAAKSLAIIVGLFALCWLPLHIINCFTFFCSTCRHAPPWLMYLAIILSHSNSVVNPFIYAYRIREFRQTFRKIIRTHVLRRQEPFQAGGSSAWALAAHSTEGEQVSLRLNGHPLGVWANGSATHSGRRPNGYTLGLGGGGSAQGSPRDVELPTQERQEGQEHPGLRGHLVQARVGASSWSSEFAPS

Structure (SMILES): COc1cc(CNc2ncnc3c2ncn3[C@@H]2O[C@H](CO)[C@@H](O)[C@H]2O)ccc1O [B2, N^6-(3-methoxyl-4-hydroxybenzyl) adenine riboside]
- pKi: 6.43
